Measurements from ChEMBL document CHEMBL3046025, “Fungitoxic Properties of N-Phenylformamidoximes in Control of Benzimidazole-Resistant Isolates of Fungi” (1992).

Assays:
Assay type in all cases: functional
[1] = test system: Cercospora beticola; assay: Antifungal activity against Benzimidalzole-resistant Cercospora beticola isolate Cb-19 infected in sugar beet seedlings at 12.5 ppm treated as foliar application 7 days prior to inoculation
[2] = test system: Cercospora beticola; assay: Antifungal activity against Benzimidalzole-resistant Cercospora beticola isolate Cb-19 infected in sugar beet seedlings at 50 ppm treated as foliar application 7 days prior to inoculation
[3] = test system: Cercospora beticola; assay: Antifungal activity against Benzimidalzole-resistant Cercospora beticola isolate Cb-19 infected in sugar beet seedlings at 200 ppm treated as foliar application 7 days prior to inoculation
[4] = test system: Cercospora beticola; assay: Antifungal activity against Benzimidalzole-resistant Cercospora beticola isolate Cb-19 infected in sugar beet seedlings at 200 ppm 24 hr-post inoculation
[5] = test system: Cercospora beticola; assay: Antifungal activity against Benzimidalzole-resistant Cercospora beticola isolate Cb-19 infected in sugar beet seedlings at 200 ppm applied as soil drench 3 days prior to inoculation
[6] = test system: Cercospora beticola; assay: Antifungal activity against Benzimidalzole-sensitive Cercospora beticola isolate 18-1 infected in compound-treated sugar beet seedlings at 200 ppm after 12 days
[7] = test system: Cercospora beticola; assay: Antifungal activity against Benzimidalzole-sensitive Cercospora beticola isolate 18-1 infected in compound-treated sugar beet seedlings at 50 ppm after 12 days
[8] = test system: Cercospora beticola; assay: Antifungal activity against Benzimidalzole-sensitive Cercospora beticola isolate 18-1 infected in compound-treated sugar beet seedlings at 12.5 ppm after 12 days
[9] = test system: Cercospora beticola; assay: Antifungal activity against Benzimidalzole-resistant Cercospora beticola isolate 18-2 infected in compound-treated sugar beet seedlings at 3.1 ppm after 12 days
[10] = test system: Cercospora beticola; assay: Antifungal activity against Benzimidalzole-resistant Cercospora beticola isolate 18-2 infected in compound-treated sugar beet seedlings at 12.5 ppm after 12 days
[11] = test system: Cercospora beticola; assay: Antifungal activity against Benzimidalzole-resistant Cercospora beticola isolate 18-2 infected in compound-treated sugar beet seedlings at 50 ppm after 12 days
[12] = test system: Cercospora beticola; assay: Antifungal activity against Benzimidalzole-resistant Cercospora beticola isolate 18-2 infected in compound-treated sugar beet seedlings at 200 ppm after 12 days
[13] = test system: Cercospora beticola; assay: Antifungal activity against Benzimidalzole-resistant Cercospora beticola isolate Cb-19 infected in compound-treated sugar beet seedlings at 3.1 ppm after 12 days
[14] = test system: Cercospora beticola; assay: Antifungal activity against Benzimidalzole-resistant Cercospora beticola isolate Cb-19 infected in compound-treated sugar beet seedlings at 50 ppm after 12 days
[15] = test system: Cercospora beticola; assay: Antifungal activity against Benzimidalzole-resistant Cercospora beticola isolate Cb-19 infected in compound-treated sugar beet seedlings at 12.5 ppm after 12 days
[16] = test system: Cercospora beticola; assay: Antifungal activity against Benzimidalzole-resistant Cercospora beticola isolate Cb-19 infected in compound-treated sugar beet seedlings at 200 ppm after 12 days
[17] = test system: Cercospora beticola; assay: Antifungal activity against Benzimidalzole-resistant Cercospora beticola isolate 20-2 infected in compound-treated sugar beet seedlings at 3.1 ppm after 12 days
[18] = test system: Cercospora beticola; assay: Antifungal activity against Benzimidalzole-resistant Cercospora beticola isolate 20-2 infected in compound-treated sugar beet seedlings at 12.5 ppm after 12 days
[19] = test system: Cercospora beticola; assay: Antifungal activity against Benzimidalzole-resistant Cercospora beticola isolate 20-2 infected in compound-treated sugar beet seedlings at 50 ppm after 12 days
[20] = test system: Cercospora beticola; assay: Antifungal activity against Benzimidalzole-resistant Cercospora beticola isolate 20-2 infected in compound-treated sugar beet seedlings at 200 ppm after 12 days
[21] = test system: Cercospora beticola; assay: Antifungal activity against Benzimidalzole-sensitive Cercospora beticola isolate 18-1 infected in compound-treated sugar beet seedlings at 3.1 ppm after 12 days
[22] = test system: Botrytis cinerea; assay: Antifungal activity against Benzimidalzole-sensitive Botryotinia fuckeliana isolate Bc-9 infected kidney bean leaves at 12.5 ppm 24 hr post-infection measured after 3 days
[23] = test system: Cercospora beticola; assay: Antifungal activity against Benzimidalzole-sensitive Cercospora beticola isolate 18-1 infected in sugar beet seedlings at 3.1 ppm 24 hr-post inoculation
[24] = test system: Cercospora beticola; assay: Antifungal activity against Benzimidalzole-sensitive Cercospora beticola isolate 18-1 infected in sugar beet seedlings at 12.5 ppm 24 hr-post inoculation
[25] = test system: Cercospora beticola; assay: Antifungal activity against Benzimidalzole-sensitive Cercospora beticola isolate 18-1 infected in sugar beet seedlings at 50 ppm 24 hr-post inoculation
[26] = test system: Cercospora beticola; assay: Antifungal activity against Benzimidalzole-sensitive Cercospora beticola isolate 18-1 infected in sugar beet seedlings at 200 ppm 24 hr-post inoculation
[27] = test system: Botrytis cinerea; assay: Antifungal activity against Benzimidalzole-sensitive Botryotinia fuckeliana isolate Bc-9 infected kidney bean leaves at 200 ppm applied as soil drench 3 days prior to inoculation
[28] = test system: Botrytis cinerea; assay: Antifungal activity against Benzimidalzole-sensitive Botryotinia fuckeliana isolate Bc-9 infected kidney bean leaves at 200 ppm treated as foliar application followed by incubation for 7 days in green house condition
[29] = test system: Botrytis cinerea; assay: Antifungal activity against Benzimidalzole-sensitive Botryotinia fuckeliana isolate Bc-9 infected compound-treated kidney bean leaves at 12.5 ppm after 4 days
[30] = test system: Botrytis cinerea; assay: Antifungal activity against Benzimidalzole-sensitive Botryotinia fuckeliana isolate Bc-9 infected compound-treated kidney bean leaves at 50 ppm after 4 days
[31] = test system: Botrytis cinerea; assay: Antifungal activity against Benzimidalzole-sensitive Botryotinia fuckeliana isolate Bc-9 infected compound-treated kidney bean leaves at 200 ppm after 4 days
[32] = test system: Botrytis cinerea; assay: Antifungal activity against Benzimidalzole-resistant Botryotinia fuckeliana isolate Bc-44 infected compound-treated kidney bean leaves at 12.5 ppm after 4 days
[33] = test system: Botrytis cinerea; assay: Antifungal activity against Benzimidalzole-resistant Botryotinia fuckeliana isolate Bc-44 infected compound-treated kidney bean leaves at 50 ppm after 4 days
[34] = test system: Botrytis cinerea; assay: Antifungal activity against Benzimidalzole-resistant Botryotinia fuckeliana isolate Bc-44 infected compound-treated kidney bean leaves at 200 ppm after 4 days
[35] = test system: Botrytis cinerea; assay: Antifungal activity against Benzimidalzole-resistant Botryotinia fuckeliana isolate Bc-20 infected compound-treated kidney bean leaves at 12.5 ppm after 4 days
[36] = test system: Botrytis cinerea; assay: Antifungal activity against Benzimidalzole-resistant Botryotinia fuckeliana isolate Bc-20 infected compound-treated kidney bean leaves at 200 ppm after 4 days
[37] = test system: Botrytis cinerea; assay: Antifungal activity against Benzimidalzole-resistant Botryotinia fuckeliana isolate Bc-20 infected compound-treated kidney bean leaves at 50 ppm after 4 days
[38] = test system: Cercospora beticola; assay: Antifungal activity against Benzimidalzole-sensitive Cercospora beticola isolate 18-1 infected in sugar beet seedlings at 200 ppm applied as soil drench 3 days prior to inoculation
[39] = test system: Cercospora beticola; assay: Antifungal activity against Benzimidalzole-sensitive Cercospora beticola isolate 18-1 infected in sugar beet seedlings at 12.5 ppm treated as foliar application 7 days prior to inoculation
[40] = test system: Cercospora beticola; assay: Antifungal activity against Benzimidalzole-sensitive Cercospora beticola isolate 18-1 infected in sugar beet seedlings at 50 ppm treated as foliar application 7 days prior to inoculation
[41] = test system: Cercospora beticola; assay: Antifungal activity against Benzimidalzole-sensitive Cercospora beticola isolate 18-1 infected in sugar beet seedlings at 200 ppm treated as foliar application 7 days prior to inoculation
[42] = test system: Botrytis cinerea; assay: Antifungal activity against Benzimidalzole-sensitive Botryotinia fuckeliana isolate Bc-9 infected kidney bean leaves at 50 ppm 24 hr post-infection measured after 3 days
[43] = test system: Botrytis cinerea; assay: Antifungal activity against Benzimidalzole-sensitive Botryotinia fuckeliana isolate Bc-9 infected kidney bean leaves at 200 ppm 24 hr post-infection measured after 3 days
[44] = test system: Botrytis cinerea; assay: Antifungal activity against Benzimidalzole-resistant Botryotinia fuckeliana isolate Bc-44 infected kidney bean leaves at 12.5 ppm treated as foliar application followed by incubation for 7 days in green house condition
[45] = test system: Botrytis cinerea; assay: Antifungal activity against Benzimidalzole-resistant Botryotinia fuckeliana isolate Bc-44 infected kidney bean leaves at 50 ppm treated as foliar application followed by incubation for 7 days in green house condition
[46] = test system: Botrytis cinerea; assay: Antifungal activity against Benzimidalzole-resistant Botryotinia fuckeliana isolate Bc-44 infected kidney bean leaves at 200 ppm treated as foliar application followed by incubation for 7 days in green house condition
[47] = test system: Botrytis cinerea; assay: Antifungal activity against Benzimidalzole-resistant Botryotinia fuckeliana isolate Bc-44 infected kidney bean leaves at 50 ppm applied as soil drench 3 days prior to inoculation
[48] = test system: Botrytis cinerea; assay: Antifungal activity against Benzimidalzole-resistant Botryotinia fuckeliana isolate Bc-44 infected kidney bean leaves at 200 ppm applied as soil drench 3 days prior to inoculation
[49] = test system: Botrytis cinerea; assay: Antifungal activity against Benzimidalzole-resistant Botryotinia fuckeliana isolate Bc-20 infected compound-treated kidney bean leaves at 3.1 ppm after 4 days
[50] = test system: Botrytis cinerea; assay: Antifungal activity against Benzimidalzole-sensitive Botryotinia fuckeliana isolate Bc-9 infected compound-treated kidney bean leaves at 3.1 ppm after 4 days
[51] = test system: Botrytis cinerea; assay: Antifungal activity against Benzimidalzole-resistant Botryotinia fuckeliana isolate Bc-44 infected kidney bean leaves at 3.1 ppm 24 hr post-infection measured after 3 days
[52] = test system: Botrytis cinerea; assay: Antifungal activity against Benzimidalzole-resistant Botryotinia fuckeliana isolate Bc-44 infected kidney bean leaves at 12.5 ppm 24 hr post-infection measured after 3 days
[53] = test system: Botrytis cinerea; assay: Antifungal activity against Benzimidalzole-resistant Botryotinia fuckeliana isolate Bc-44 infected kidney bean leaves at 50 ppm 24 hr post-infection measured after 3 days
[54] = test system: Botrytis cinerea; assay: Antifungal activity against Benzimidalzole-resistant Botryotinia fuckeliana isolate Bc-44 infected kidney bean leaves at 200 ppm 24 hr post-infection measured after 3 days
[55] = test system: Botrytis cinerea; assay: Antifungal activity against Benzimidalzole-resistant Botryotinia fuckeliana isolate Bc-44 infected compound-treated kidney bean leaves at 3.1 ppm after 4 days

Molecule | Activity [6] | Activity [7] | Activity [8] | Activity [11] | Activity [12] | Activity [14] | Activity [16] | Activity [17] | Activity [18] | Activity [19] | Activity [20] | Activity [21] | Activity [29] | Activity [30] | Activity [31] | Activity [32] | Activity [33] | Activity [34] | Activity [35] | Activity [36] | other results
TRIPHENYLSTANNANOL | 100% | 100% | 88% | 100% | 100% | 100% | 100% | 69% | 94% | 100% | 100% | 75% | – | – | – | – | – | – | – | – | Activity [1]: 65%; Activity [2]: 90%; Activity [3]: 100%; Activity [4]: 0%; Activity [5]: 0%; Activity [9]: 56%; Activity [10]: 80%; Activity [13]: 60%; Activity [15]: 78%
COC(=O)NC(=S)Nc1ccccc1NC(=S)NC(=O)OC [THIOPHANATE METHYL] | 100% | 100% | 88% | 0% | 0% | 0% | 0% | 0% | 12% | 56% | 78% | 68% | 35% | 84% | 96% | 0% | 0% | 5% | 0% | 17% | Activity [22]: 73%; Activity [23]: 13%; Activity [24]: 75%; Activity [25]: 100%; Activity [26]: 100%; Activity [27]: 51%; Activity [28]: 93%; Activity [37]: 7%; Activity [38]: 64%; Activity [39]: 25%; Activity [40]: 84%; Activity [41]: 88%; Activity [42]: 84%; Activity [43]: 84%
C=CC1(C)OC(=O)N(c2cc(Cl)cc(Cl)c2)C1=O (stereo unspecified) [VINCLOZOLIN] | – | – | – | – | – | – | – | – | – | – | – | – | 90% | 100% | 100% | 77% | 100% | 100% | 82% | 100% | Activity [44]: 45%; Activity [45]: 75%; Activity [46]: 91%; Activity [47]: 56%; Activity [48]: 93%; Activity [49]: 31%; Activity [37]: 100%; Activity [50]: 39%; Activity [51]: 70%; Activity [52]: 97%; Activity [53]: 100%; Activity [54]: 100%; Activity [55]: 21%
